Assays:
[1] = tested on: globular embryos; assay: Elongation of globular embryos (bilayer culture system); format: cell-based, Cucumis sativus; conditions: in liquid embryo culture medium
Excerpt: In one embodiment, the LECM comprises one or more HDACi and/or one or more polyamines, preferably both HDACi and polyamine. The HDACi and/or the polyamine can be selected from the above lists, and can be present in any of the aforementioned quantities, in the LECM. In certain embodiments, the LECM further comprises plant growth regulators, in particular selected from auxins, cytokinins, gibberellins, abscisic acid, and mixtures thereof. In a preferred embodiment, the LECM comprises abscisic acid, in an amount effective to enable the development of the embryos. In particular, the LECM comprises from 0.5 to 5 ppm abscisic acid, still preferably from 1 to 2 ppm abscisic acid.
Globular embryos are visible after 20 to 40 days of culture in MEDM medium. To obtain elongated embryos, the inventors have used a bilayer culture system on a rotary shaker at 50-70 rpm in the dark for about 30 day, which has enabled the elongation of the embryos (FIG. 2E to 2G). The bilayer culture system is made of two layers, one lower solid medium made of MEEM with activated charcoal and solidified with 7 g/L agar (see Table 7) and one upper liquid medium, still made of MEDM supplemented with 1-2 ppm abscisic acid and containing the embryos to be elongated.

[2] = tested on: isolated microspores; assay: Test of various compounds within the IMC media (all with SAHA 10 μM); format: cell-based, Cucumis sativus; conditions: in association with SAHA
Experimental: Isolated microspores are obtained according to the method described in Example 2, and cultured. […] All media comprise M404 basal medium and carbohydrates as in the MEIM composition described in Table 7, supplemented with 10 μM SAHA plus various other additional compounds. “Event” represents embryogenic callus or embryos.
The microspore cultures are evaluated for their production of multicellular structures and/or normal embryos.

[3] = tested on: isolated microspores of Cucumis sativus; assay: Isolated microspore culture (IMC) of cucumber with HDACi and/or polyamine: formation and classification of multicellular structures; format: cell-based; conditions: for Classification of the multicellular structures / Response (% of formation of multicellular structures): no polyamine
Experimental: The solution of microspore is diluted to a concentration of about 30,000-150,000 cells/mL using a haemocytometer to count the microspore density. This is done in a Microspore Embryogenesis Induction Medium (MEIM), which components are described in Table 7. The solution is aliquoted by 4-6 mL into 60 mm×50 mm petri plates and sealed, for a heat shock of 24-72 hour at 30-33° C. in the dark.
The isolated microspores are then cultured in the dark at 22-28° C. for about four to five weeks until globular embryos can be seen by bare eyes.
The MEIM medium complemented with polyamine is referred to as a Microspore embryo development medium (MEDM) which components are described in Table 7.
One will note that the Response % is the percentage of formation of multicellular structures, not the analysis or classification of such structures as normal or abnormal. The last column (classification of the multicellular structures) reflects the observation of the multicellular structures according to criteria which defines whether they are normal or abnormal, i.e. uniformity of the cells, and compactness of the multicellular structures.

CC1=CC(=O)CC(C)(C)[C@@]1(O)/C=C/C(C)=C\C(=O)O [Abscisic acid, abscisic acid]
effect on elongation of the embryos [1]: positive effect

NCCCCN [Putrescine, putrescine]
development of normal embryos from the isolated microspores [2]: enable the development of normal embryos

CC(/C=C/C(=O)NO)=C\[C@@H](C)C(=O)c1ccc(N(C)C)cc1 [TSA, trichostatin A]
response compared with SAHA ([3]; another HDACi tested in isolated microspore culture): lower response than for the SAHA
Classification of the multicellular structures ([3]; cultivar PI518848, TSA 0.5 μM): Abnormal
Response (% of formation of multicellular structures) ([3]; cultivar PI518848, TSA 0.5 μM): 4.3%

O=C(CCCCCCC(=O)Nc1ccccc1)NO [SAHA, suberoylanilide hydroxamic acid]
Classification of the multicellular structures ([3]; cultivar HMX4453, SAHA 10 μM): Abnormal
Response (% of formation of multicellular structures) ([3]; cultivar HMX4453, SAHA 10 μM): 9.6%
Classification of the multicellular structures ([3]; cultivar PI518848, SAHA 5 μM): Abnormal
Response (% of formation of multicellular structures) ([3]; cultivar PI518848, SAHA 5 μM): 13.7%
Classification of the multicellular structures ([3]; cultivar PI518848, SAHA 10 μM): Abnormal
Response (% of formation of multicellular structures) ([3]; cultivar PI518848, SAHA 10 μM): 17.3%
multicellular microspore formations ([3]; isolated microspore cultures with SAHA but without polyamine): more present but are abnormal
